In one test the test system is MOLM14 F691L cells. Put plainly: MOLM14 F691L cell viability (Cell Titer Glo). The test is classed as cell-based. The following applies: Homo sapiens, MOLM-14, Table 22, 48 h. As for the experimental part: (§1) Both cell lines have activated FLT3 receptors, each of which carry additional resistance mutations in the kinase domain (D835Y and F691L, respectively).
(§2) MOLM14 D835Y and MOLM14 F691L cells were grown in RPMI-1640 media supplemented with 20% fetal bovine serum (FBS). For viability/cytotoxicity assessments, cells were seeded into 1536-well white polystyrene tissue culture-treated Greiner plates using a Multidrop Combi dispenser (ThermoFisher), in final volume 5 μL of growth media per well, at a density of 1000 cells per well. After cell addition, 23 nL of test compound were transferred into individual wells (22 doses tested for each test compound, with a 1:2 dilution series starting at 10 μM) via a 1536 pin-tool. Bortezomib (final concentration 2.3 μM) was used as a positive control for cell cytotoxicity. Plates were incubated for 48 hours at standard incubator conditions covered by a stainless steel gasketed lid to prevent evaporation. 48 hours post compound addition, 3 μL of Cell Titer Glo (Promega) were added to each well and plates were incubated at room temperature for 15 minutes with the stainless-steel lid in place. Luminescence readings were taken using a Viewlux imager (PerkinElmer) with a 2 second exposure time per plate.
In general terms: ATP-based viability assays read luminescence as a measure of living cells.

Another test addresses T1, FLT3 (Homo sapiens, UniProt P36888).
T1 sequence (P36888 27-993): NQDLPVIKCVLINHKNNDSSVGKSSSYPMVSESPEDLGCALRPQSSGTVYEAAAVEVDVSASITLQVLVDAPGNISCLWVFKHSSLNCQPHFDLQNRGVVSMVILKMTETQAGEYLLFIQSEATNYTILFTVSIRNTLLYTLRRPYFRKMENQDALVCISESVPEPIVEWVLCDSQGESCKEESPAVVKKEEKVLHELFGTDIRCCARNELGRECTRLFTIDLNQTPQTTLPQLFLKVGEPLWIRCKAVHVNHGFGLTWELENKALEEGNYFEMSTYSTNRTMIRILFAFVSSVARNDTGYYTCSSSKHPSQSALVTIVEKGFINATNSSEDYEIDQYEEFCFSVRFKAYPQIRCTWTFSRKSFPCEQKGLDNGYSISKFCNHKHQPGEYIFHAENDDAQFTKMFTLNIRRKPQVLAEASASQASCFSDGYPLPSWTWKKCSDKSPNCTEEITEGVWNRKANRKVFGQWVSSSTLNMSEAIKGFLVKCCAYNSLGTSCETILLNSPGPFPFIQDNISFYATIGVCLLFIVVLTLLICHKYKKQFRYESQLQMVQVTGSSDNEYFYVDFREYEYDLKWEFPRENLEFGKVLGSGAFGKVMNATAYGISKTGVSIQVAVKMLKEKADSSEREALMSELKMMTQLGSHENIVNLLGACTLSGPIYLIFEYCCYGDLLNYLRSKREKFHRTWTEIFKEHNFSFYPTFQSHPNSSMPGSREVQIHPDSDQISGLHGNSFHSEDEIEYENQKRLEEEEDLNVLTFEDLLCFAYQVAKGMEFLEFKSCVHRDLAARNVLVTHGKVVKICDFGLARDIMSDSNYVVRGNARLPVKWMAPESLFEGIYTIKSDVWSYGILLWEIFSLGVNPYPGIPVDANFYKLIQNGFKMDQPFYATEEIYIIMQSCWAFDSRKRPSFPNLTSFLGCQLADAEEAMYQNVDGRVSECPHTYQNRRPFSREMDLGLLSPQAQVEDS
Put plainly: RBC HotSpot kinase inhibition assay, FLT3. The test is classed as biochemical. The following applies: isolated kinase, 33P-ATP, 2 h.
Text: (§3) This assay uses the isolated kinase enzyme. This assay is very useful for determining competition of the inhibitor for ATP and/or substrates and for measuring the kinetics of enzyme inhibition. […] Unlike kinase binding assays that measure competition for ATP, the HotSpot Kinase Assay is a functional assay that measures catalytic activity; as such it measures relative functional potency regardless of the mechanism of enzyme inhibition. This assay uses the form of the various enzymes that are easiest to express, which may not necessarily be the form of the enzyme that exist in the cell. (Sometimes the carboxy terminus has been truncated to aid in expression, or, if it is a receptor kinase, the enzyme itself is isolated from the other parts of the receptor that are involved in regulating kinase activity.)
(§4) The reagent used was as follows: Base Reaction buffer; 20 mM Hepes (pH 7.5), 10 mM MgCl2, 1 mM EGTA, 0.01% Brij35, 0.02 mg/ml BSA, 0.1 mM Na3VO4, 2 mM DTT, 1% DMSO. Required cofactors were added individually to each kinase reaction.
(§5) The reaction procedure was as follows: • 1) Substrates were prepared in freshly prepared Reaction Buffer. • 2) Any required cofactors were delivered to the substrate solution above. • 3) Kinase was delivered into the substrate solution and gently mixed. • 4) Compounds were delivered in 100% DMSO into the kinase reaction mixture by Acoustic technology (Echo550; nanoliter range), followed by incubation for 20 min at room temp. • 5) ^33P-ATP was delivered into the reaction mixture to initiate the reaction. • 6) The mixture was incubated for 2 hours at room temperature. • 7) Kinase activity was detected by P81 filter-binding method.
as §3, with “Although not wishing to be limited by theory, it is believed that sometimes” for “(Sometimes”, “activity.” for “activity.)”
(§6) The reagent used was as follows: Base Reaction buffer; 20 mM Hepes (pH 7.5), 10 mM MgCl2, 1 mM EGTA, 0.01% Brij35, 0.02 mg/ml BSA, 0.1 mM Na3 VO4, 2 mM DTT, 1% DMSO.
(§7) Required cofactors were added individually to each kinase reaction.
as §5, with “33P-ATP” for “^33P-ATP”

Another test deals with MOLM14 D835Y cells. Put plainly: MOLM14 D835Y cell viability (Cell Titer Glo). The test is classed as cell-based. The following applies: Homo sapiens. As to the method:
as §1, §2
This cell line has activated FLT3 receptors, which carries an additional resistance mutation in the kinase domain at D835Y.
as §2, with “D835Y” for “D835Y and MOLM14 F691L”, “mL” for “μL”, “mM)” for “μM)”

The target in a further test is IRAK1 (Homo sapiens, UniProt P51617). Put plainly: RBC HotSpot kinase inhibition assay, IRAK1. The test is classed as biochemical. The following applies: isolated kinase, 33P-ATP, 2 h.
Text: as §3, §4, §5
as §3, with “Although not wishing to be limited by theory, it is believed that sometimes” for “(Sometimes”, “activity.” for “activity.)”
as §6, §7
as §5, with “33P-ATP” for “^33P-ATP”

The next test concerns the target T2, IRAK4 (Homo sapiens, UniProt Q9NWZ3).
T2 sequence (Q9NWZ3 1-460): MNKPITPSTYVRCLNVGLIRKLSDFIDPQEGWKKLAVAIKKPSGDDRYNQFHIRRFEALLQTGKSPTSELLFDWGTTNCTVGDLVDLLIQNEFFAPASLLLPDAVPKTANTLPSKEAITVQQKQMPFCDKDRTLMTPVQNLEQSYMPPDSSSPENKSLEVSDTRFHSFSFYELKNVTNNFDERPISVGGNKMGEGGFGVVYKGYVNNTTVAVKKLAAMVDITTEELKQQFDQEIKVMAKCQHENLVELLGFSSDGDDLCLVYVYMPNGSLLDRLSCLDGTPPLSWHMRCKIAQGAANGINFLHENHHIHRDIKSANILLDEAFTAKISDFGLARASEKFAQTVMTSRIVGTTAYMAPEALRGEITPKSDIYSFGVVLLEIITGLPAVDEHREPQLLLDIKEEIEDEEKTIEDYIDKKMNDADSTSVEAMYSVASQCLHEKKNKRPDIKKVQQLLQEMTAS
The test can be described thus: RBC HotSpot kinase inhibition assay, IRAK4. The test is classed as biochemical. The following applies: isolated kinase, 33P-ATP, 2 h.
Text: as §3, §4, §5
as §3, with “Although not wishing to be limited by theory, it is believed that sometimes” for “(Sometimes”, “activity.” for “activity.)”
as §6, §7
as §5, with “33P-ATP” for “^33P-ATP”

Test [1] has as its system NF-κB. Put plainly: NF-κB SEAP reporter assay in THP-1-Blue NF-κB cells, hIL1B stimulated. The test is classed as cell-based. The following applies: Table 21; THP-1-Blue cells, 1 ng/ml hIL1B, 24 h; read-out: NF-κB IL1B IC50. As for the experimental part:
(§8) THP-1-Blue NF-κB cells (InvivoGen) carrying a stable integrated NF-κB-inducible secreted embryonic alkaline phosphatase (SEAP) reporter construct were plated at a concentration of 1×10^5 cells per well. The cells were stimulated with Pam3CSK4 (1 ng/ml) or hIL1B (1 ng/ml). After 10-20 minutes, the cells were then treated with vehicle (DMSO) or serial dilutions of the test compounds (10 doses tested for each test compound, with a […] starting at 1 μM or 3 μM) with a final volume of 200 μL for 24 hours at 37 °C. After 24 hours, the cells were centrifuged and 20 μL supernatant was incubated with 180 μL QUANTI-Blue reagent at 37 °C for 30-60 minutes. The levels of NF-κB-induced was measured in a microplate reader at 620 nm.
as §8, with “1 mM” for “1 μM”, “3 mM)” for “3 μM)”, “200 mL” for “200 μL”, “20 mL” for “20 μL”, “180 mL” for “180 μL”, “NF-κB-induced gene expression were” for “NF-κB-induced was”
For orientation: A reporter such as luciferase makes a cellular process visible.

The subject of test [2] is NF-κB. Put plainly: NF-κB SEAP reporter assay in THP-1-Blue NF-κB cells, Pam3CSK4 stimulated. The following applies: Table 21; THP-1-Blue cells, 1 ng/ml Pam3CSK4, 24 h; read-out: NF-κB Pam3SCK4 IC50. The test is classed as cell-based. As to the method:
as §8
as §8, with “1 mM” for “1 μM”, “3 mM)” for “3 μM)”, “200 mL” for “200 μL”, “20 mL” for “20 μL”, “180 mL” for “180 μL”, “NF-κB-induced gene expression were” for “NF-κB-induced was”

Sequence of IRAK1 (P51617 whole entry): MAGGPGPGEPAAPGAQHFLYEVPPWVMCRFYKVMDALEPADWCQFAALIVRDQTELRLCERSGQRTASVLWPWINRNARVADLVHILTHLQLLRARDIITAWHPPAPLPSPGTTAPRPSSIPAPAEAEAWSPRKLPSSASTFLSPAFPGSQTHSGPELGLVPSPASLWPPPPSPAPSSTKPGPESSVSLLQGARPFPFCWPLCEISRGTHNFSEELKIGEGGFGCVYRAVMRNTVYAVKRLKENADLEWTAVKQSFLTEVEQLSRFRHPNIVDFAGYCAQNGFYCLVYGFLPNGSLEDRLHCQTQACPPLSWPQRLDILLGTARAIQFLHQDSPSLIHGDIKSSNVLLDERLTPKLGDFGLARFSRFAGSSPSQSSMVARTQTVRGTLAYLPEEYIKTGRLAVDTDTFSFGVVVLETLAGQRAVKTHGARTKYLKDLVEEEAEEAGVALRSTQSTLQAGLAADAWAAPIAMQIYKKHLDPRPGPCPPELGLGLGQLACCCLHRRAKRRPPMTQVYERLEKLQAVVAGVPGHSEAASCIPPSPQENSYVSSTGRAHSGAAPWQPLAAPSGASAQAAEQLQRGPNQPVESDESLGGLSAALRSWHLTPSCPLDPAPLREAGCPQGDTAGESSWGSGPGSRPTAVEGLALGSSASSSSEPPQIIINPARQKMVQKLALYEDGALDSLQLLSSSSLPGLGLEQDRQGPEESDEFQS

The term IC50 denotes the point on the concentration scale where inhibition reaches its midpoint. Consider `COc1cn2ncc(-c3ccnc(N[C@@H]4CCCNC4)n3)c2nc1C(C)(C)O` [Compound 2a, (R)-2-(6-methoxy-3-(2-(piperidin-3-ylamino)pyrimidin-4-yl)pyrazolo[1,5-a]pyrimidin-5-yl)propan-2-ol], for which the 50% inhibitory concentration (IC50) is 1790 nM with MOLM14 F691L cells; 8 nM on FLT3 (Table 17); 159 nM in the test with MOLM14 D835Y cells (MOLM-14, Table 22, 48 h); 365 nM against IRAK1 (Table 17); 127 nM on IRAK4 (Table 17).

As for `COc1cn2ncc(-c3ccnc(N[C@@H]4CCCNC4)n3)c2nc1C1CC1` [Compound 9a, (R)-4-(5-cyclopropyl-6-methoxypyrazolo[1,5-a]pyrimidin-3-yl)-N-(piperidin-3-yl)pyrimidin-2-amine], the concentration for half-maximal inhibition (IC50) on FLT3 (Table 17) was less than 0.5 nM; with NF-κB [1], 128 nM; on IRAK1 (Table 17), 44 nM; against IRAK4 (Table 17), 4 nM; with NF-κB [2], 173 nM.

Regarding `COc1cn2ncc(-c3nc(N[C@@H]4CCCNC4)c(F)cc3F)c2nc1C1CC1` [Compound 23, (R)-6-(5-cyclopropyl-6-methoxypyrazolo[1,5-a]pyrimidin-3-yl)-3,5-difluoro-N-(piperidin-3-yl)pyridin-2-amine], the IC50 against FLT3 (Table 11) is less than 0.5 nM; with MOLM14 D835Y cells (MOLM-14, Table 16, 48 h), 5 nM; against IRAK1 (Table 11) it was less than 0.5 nM; on IRAK4 (Table 11), less than 0.5 nM.

The record behind these values is patent publication US20260374773A1, “MULTI-CYCLIC IRAK AND FLT3 INHIBITING COMPOUNDS AND USES THEREOF” (CHILDREN'S HOSPITAL MEDICAL CENTER, priority 2022, published 2026).
